Publication PMC6973011, “Stafia‐1: a STAT5a‐Selective Inhibitor Developed via Docking‐Based Screening of in Silico O‐Phosphorylated Fragments” (Chemistry (Weinheim an Der Bergstrasse, Germany), 2019)
Numbering of substitutions follows the chain as printed.

Key:
[1] = molecular target: T1, STAT5a Trp566Arg/Lys644Met (Homo sapiens, UniProt P42229, K644M/W566R); assay: Fluorescence polarization assay, double mutant STAT5a Trp566Arg/Lys644Met; format: binding; conditions: FP assay
T1 construct: made in house
T1 sequence (P42229 1-794 W566R/K644M): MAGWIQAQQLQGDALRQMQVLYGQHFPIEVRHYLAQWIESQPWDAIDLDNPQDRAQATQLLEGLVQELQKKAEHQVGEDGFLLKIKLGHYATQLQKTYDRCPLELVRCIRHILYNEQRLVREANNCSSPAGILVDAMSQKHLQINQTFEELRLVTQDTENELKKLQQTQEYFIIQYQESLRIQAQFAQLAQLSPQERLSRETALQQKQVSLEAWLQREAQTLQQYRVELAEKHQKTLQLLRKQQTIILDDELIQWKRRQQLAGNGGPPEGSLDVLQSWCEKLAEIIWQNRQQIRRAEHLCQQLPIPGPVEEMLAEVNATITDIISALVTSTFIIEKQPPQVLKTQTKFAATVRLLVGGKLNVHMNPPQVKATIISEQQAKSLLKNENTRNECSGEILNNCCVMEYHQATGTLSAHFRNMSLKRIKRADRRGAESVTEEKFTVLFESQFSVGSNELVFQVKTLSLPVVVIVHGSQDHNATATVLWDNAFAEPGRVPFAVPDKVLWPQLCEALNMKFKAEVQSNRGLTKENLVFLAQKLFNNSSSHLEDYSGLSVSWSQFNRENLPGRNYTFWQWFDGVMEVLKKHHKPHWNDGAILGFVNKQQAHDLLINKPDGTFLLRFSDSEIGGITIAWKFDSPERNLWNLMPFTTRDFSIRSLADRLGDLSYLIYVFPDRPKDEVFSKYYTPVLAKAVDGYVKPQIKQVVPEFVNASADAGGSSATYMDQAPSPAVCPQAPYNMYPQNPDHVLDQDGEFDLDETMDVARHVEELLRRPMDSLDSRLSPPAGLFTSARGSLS

[2] = molecular target: T2, STAT5a (Homo sapiens, UniProt P42229); assay: Fluorescence polarization competitive binding assay, STAT5a
T2 construct: made in house
T2 sequence (P42229 1-794): T1 sequence (P42229 1-794 W566R/K644M) with R566W, M644K

[3] = molecular target: STAT3 (Homo sapiens, UniProt P40763); assay: Fluorescence polarization competitive binding assay, STAT3 SH2 domain; conditions: read-out: STAT3 inhibition at 200 μM
Source text: Expression and purification of STAT1, STAT3, STAT4, STAT5a, STAT5b, STAT5a Trp566Arg, STAT5b Arg566Trp, STAT5b 6M, STAT5b 7M, STAT6, and Lck have previously been described.[4, 12] STAT proteins were purified over a single His-Bind resin (Millipore) column.
Wild-type and mutant STAT5a/b proteins used for activity analysis of 20 were purified over two successive His-Bind resin columns.[4, 13]
Fluorescence Polarization assays
Competitive binding assays based on fluorescence polarization were essentially carried out as described.[14] Unless stated otherwise, the following final concentration of proteins were used:
STAT4; 105 nM for STAT6; 30 nM for Lck. Final concentration of all peptides: 10 nM. Peptides used: 5-carboxyfluorescein-GpYLVLDKW for STAT5a/b and point mutants thereof; 5-carboxyfluorescein-GpYLPQTV-NH2 for STAT3; 5-carboxyfluorescein-GpYDKPHVL for STAT1; 5-carboxyfluorescein-GpYLPQNID-OH for STAT4; 5-carboxyfluorescein-
analysis of 20 against wild-type (wt) STAT5a/b and STAT5a/b point mutants, the following concentrations of double-purified protein were used, which reflect the approximate Kd values of the interactions with 5-carboxyfluorescein-GpYLVLDKW: STAT5a wt: 147 nM; STAT5b wt:
STAT5b 6M: 80 nM; STAT5b 7M: 282 nM. […]
Fluorescence polarization was measured after another hour using an Infinite F500 plate reader (Tecan). […]

[4] = molecular target: T3, STAT5b Arg566Trp/Met639Asn/Met644Lys (STAT5b‐3M) (Homo sapiens, UniProt P51692, M639N/M644K/R566W); assay: Fluorescence polarization assay, triple mutant STAT5b-3M; format: binding
T3 construct: made in house
T3 sequence (P51692 1-787 R566W/M639N/M644K): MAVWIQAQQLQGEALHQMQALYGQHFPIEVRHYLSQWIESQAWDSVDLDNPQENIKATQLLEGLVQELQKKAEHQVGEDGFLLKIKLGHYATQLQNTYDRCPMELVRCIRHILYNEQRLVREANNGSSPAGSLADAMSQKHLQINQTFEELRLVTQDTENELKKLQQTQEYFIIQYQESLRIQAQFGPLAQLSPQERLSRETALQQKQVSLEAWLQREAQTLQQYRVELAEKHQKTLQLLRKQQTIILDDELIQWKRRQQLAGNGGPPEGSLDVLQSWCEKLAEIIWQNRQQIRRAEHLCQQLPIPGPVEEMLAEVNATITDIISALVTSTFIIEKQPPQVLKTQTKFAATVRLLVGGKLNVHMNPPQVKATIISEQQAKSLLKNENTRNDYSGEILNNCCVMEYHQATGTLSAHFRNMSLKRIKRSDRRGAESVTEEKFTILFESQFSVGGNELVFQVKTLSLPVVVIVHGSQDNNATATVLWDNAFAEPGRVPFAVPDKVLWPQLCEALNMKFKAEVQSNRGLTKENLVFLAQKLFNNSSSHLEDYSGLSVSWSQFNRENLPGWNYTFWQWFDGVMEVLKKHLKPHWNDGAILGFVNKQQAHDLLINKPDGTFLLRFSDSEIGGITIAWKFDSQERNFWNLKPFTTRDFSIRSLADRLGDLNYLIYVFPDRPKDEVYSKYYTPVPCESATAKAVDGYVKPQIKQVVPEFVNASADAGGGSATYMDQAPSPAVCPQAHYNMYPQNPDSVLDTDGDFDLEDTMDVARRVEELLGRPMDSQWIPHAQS

Sequence of STAT3 (P40763 whole entry, species assumed, the tested form may be a part): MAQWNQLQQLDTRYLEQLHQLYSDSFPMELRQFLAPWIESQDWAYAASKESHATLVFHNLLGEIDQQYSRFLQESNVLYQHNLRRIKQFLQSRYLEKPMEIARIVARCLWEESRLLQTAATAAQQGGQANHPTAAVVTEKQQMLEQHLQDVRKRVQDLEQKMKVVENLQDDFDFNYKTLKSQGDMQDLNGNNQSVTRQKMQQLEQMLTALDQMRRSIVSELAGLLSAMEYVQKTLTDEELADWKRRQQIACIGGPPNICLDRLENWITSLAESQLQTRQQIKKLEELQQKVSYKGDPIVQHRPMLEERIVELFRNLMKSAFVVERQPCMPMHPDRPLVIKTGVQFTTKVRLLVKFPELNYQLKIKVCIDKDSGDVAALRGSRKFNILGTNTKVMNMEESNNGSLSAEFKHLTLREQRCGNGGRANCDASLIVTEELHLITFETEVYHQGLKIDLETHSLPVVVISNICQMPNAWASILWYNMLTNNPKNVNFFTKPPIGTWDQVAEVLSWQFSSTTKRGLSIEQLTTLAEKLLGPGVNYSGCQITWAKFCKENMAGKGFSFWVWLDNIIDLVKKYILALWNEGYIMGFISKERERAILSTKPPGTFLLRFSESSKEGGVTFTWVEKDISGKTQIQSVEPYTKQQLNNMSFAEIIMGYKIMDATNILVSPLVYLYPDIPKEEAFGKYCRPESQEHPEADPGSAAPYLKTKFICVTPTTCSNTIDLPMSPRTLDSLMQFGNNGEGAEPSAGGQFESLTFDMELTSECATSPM

COc1cc(-c2cc(OP(=O)(O)O)cc(-c3cc(OC)c(OC)c(OC)c3)c2)cc(OC)c1OC [Compound 20]
inhibition at 200 µM [1]: 44 ± 4%
IC50 [2]: 22.2 ± 3.6 µM
Ki [2]: 10.9 ± 1.8 µM
selectivity for STAT5a over STAT5b ([2]; FP assays, STAT5a vs STAT5b): at least 9 fold
inhibition at 200 µM [3]: 27 ± 2%
IC50 ([4]; FP assay): 101 ± 11 µM
Ki ([4]; FP assay): 49 ± 5.4 µM
activity gap between STAT5b-3M and STAT5b-7M ([4]; FP assays): 2.5 fold
